Here are results for one molecule from paper PMC6326999, “Functionalized Magnetic Bacterial Cellulose Beads as Carrier for Lecitase® Ultra Immobilization” (Applied Biochemistry and Biotechnology, 2018).

The test deals with T1, Lecitase® Ultra (LU).
T1 construct: gene LIP; commercial preparation (Sigma-Aldrich), free enzyme
Put plainly: absorbance at […] nm, hydrolysis initial rates, non-linear Michaelis-Menten fit. The format is biochemical. The note with it: free enzyme; 50 mM Tris-Cl pH 8.5, 0.25% Triton X-100, 30 °C (standard assay); commercial preparation; kcat column headed 'Kcat × 10^3 (s^-1)'.

Structures are written as SMILES.

The Km is the concentration of substrate that gives half-maximal velocity. Turning to `CCCCCCCCCCCCCCCC(=O)Oc1ccc([N+](=O)[O-])cc1` [4-nitrophenol palmitate], the Km amounted to 450 ± 50 µM.
